Assay results reported in patent US9474788B2, “Methods for the reactivation of latent HIV using cytosine methylation inhibitors and NF-KB activators” (priority 2010, dated 2016).
Where two headings read alike, the source gives them in different places.

Experiments:
Format in all cases: cell-based
HIV-1 transcription = test: Reverse transcription and quantitative PCR of HIV-1 mRNA in J-Lat cells; details: 24 hours, 40 ng/ml cycloheximide
Method: (§1) Jurkat and J-Lat cells were cultured in RPMI (Invitrogen) with 5% FBS (Gemini Bio-Products) and 5% Fetalplex (Gemini Bio-Products). For analysis of virus reactivation by flow cytometry, aza-CdR (Sigma) and TNF-α (Biosource) treatments were for 24 h, after which medium was replaced. Reactivation was assayed after an additional 48 h. For chromatin immunoprecipitation (ChIP) and bisulfite-mediated methylcytosine mapping, cells were treated for 30 h with aza-CdR. For cycloheximide experiments, cells were treated for 24 hours, either with or without 40 ng/ml cycloheximide.
J-Lat cells were transfected with short interfering RNAs (siRNAs) corresponding to the MBD2 mRNA or non-targeting control short interfering RNAs (siRNAs) (siGENOME SMARTpool or siCONTROL pool, Dharmacon) by electroporation using Kit R and program O-28 (Amaxa Biosystems). […] Quantitative PCR was performed with the 7900HT Sequence Detection System (Applied Biosystems) and the 2× Hot Sybr real time PCR kit (Molecular Cloning Laboratories), with each PCR reaction receiving 1/20 of the reverse transcription. […] SDS 2.3 software (Applied Biosystems) was used to quantify each cDNA relative to cyclophilin A and to confirm the specificity of each PCR reaction by melting curve analysis.

latent HIV-1 [1] = test system: latent HIV-1
Method: as §1
J-Lat cells were transfected by electroporation using Kit R and program O-28 (Amaxa Biosystems). HIV-1 reactivation was assayed by flow cytometry four days post-transfection. […] Supernatant was harvested 48 h post-transfection and frozen at −80° C. in aliquots. Aliquots were thawed, diluted 1:160, and used to infect Jurkat T cells overnight at a multiplicity of 0.1 infectious units per cell with 2 ml supernatant per 1 million cells. Three days post-infection, GFP-negative and -positive cell populations were isolated by fluorescence-activated cell sorting (FACS). […] Cells were cotransfected with a plasmid encoding the tomato fluorescent protein and either methylated or unmethylated pEGFP-N1, and the tomato-positive population was analyzed for GFP expression. For measurement of J-Lat activation, cells were infected with undiluted virus and analyzed by flow cytometry 2 days post-infection.
Cell fluorescence was measured with the fluorescence activated cell sorter FACSCalibur or LSRII (BD Biosciences). Cell sorting was performed with the fluorescence activated cell sorting (FACS) Vantage DiVa (BD Biosciences). To phenotype CD4^+ T cells, the cells were stained with the following monoclonal antibodies (mAbs): phycoerythrin-conjugated (PE)—anti-CD4, TC—anti-CD45RA, or PE—anti-CXCR4 (Caltag). Flow cytometry and sorting data were analyzed with FlowJo software (Treestar) or Cellquest (BD Biosciences), in the case of primary cells. Analysis was restricted to the live population, as defined by the forward versus side scatter profile. Flowjo transforms fluorescence plots to a linear scale at the origin, permitting intelligible display of cells with low fluorescence.

latent HIV-1 [2] = test: Latent HIV-1 reactivation in a polyclonal population of latently infected Jurkat T cells, GFP by flow cytometry; details: about two months after infection
Method: as §1
J-Lat cells were transfected by electroporation using Kit R and program O-28 (Amaxa Biosystems). […] Three days post-infection, GFP-negative and -positive cell populations were isolated by fluorescence-activated cell sorting (FACS). […] Cells were cotransfected with a plasmid encoding the tomato fluorescent protein and either methylated or unmethylated pEGFP-N1, and the tomato-positive population was analyzed for GFP expression. For measurement of J-Lat activation, cells were infected with undiluted virus and analyzed by flow cytometry 2 days post-infection.
Cell fluorescence was measured with the fluorescence activated cell sorter FACSCalibur or LSRII (BD Biosciences). Cell sorting was performed with the fluorescence activated cell sorting (FACS) Vantage DiVa (BD Biosciences). […]

HIV-1 CpG islands = test: Bisulfite-mediated methylcytosine mapping of HIV-1 in J-Lat 6.3; details: depending on the CpG analyzed, 30 h treatment
Method: as §1
Sodium bisulfite treatment was performed according to the Pikaard protocol (on the internet at http://followed by www(dot)biology(dot)wustl(dot)edu/pikaard/PDFs and protocol files/bisulfite sequencing(dot)pdf) with minor modifications. Jurkat T cell DNA was digested overnight with Pst I and purified with the Qiaquick PCR Purification Kit (Qiagen). Bisulfite-treated DNA was amplified in nested PCR reactions with the following reaction conditions: denature (95° C., 5 minutes), cycle 35 times (95° C., 30 seconds then 60° C., 60 seconds), and extend (60° C., 7 minutes). […] Nucleotide sequence was determined of at least nine cloned inserts using the universal M13 reverse primer. The efficiency of sodium bisulfite conversion was calculated using the Quantification Tool for Methylation Analysis (QUMA) software.

HIV-1 CpG island 2 = test: Chromatin immunoprecipitation of factor recruitment to the HIV-1 provirus in J-Lat 6.3
Method: as §1
ChIP was performed as described previously with modifications. J-Lat 6.3 cells Cells were diluted to 5×10^5 per ml, lysed, and sonicated (Model 500 Ultrasonic Dismembranator, Fisher Scientific). Lysates were incubated overnight with 5 μg of antibody against MBD2 (Upstate Cell Signaling Solutions cat. 07-198), HDAC2 (Santa Cruz Biotechnology cat. sc-7899) or Sp1 (Santa Cruz Biotechnology cat. sc-59). Immune complexes were recovered by incubation for 1 h with protein A agarose beads (Invitrogen). Immunoprecipitated DNA was quantified by quantitative PCR using the 7900HT Sequence Detection System (Applied Biosystems) and 2× Hot Sybr real time PCR kit (Molecular Cloning Laboratories). Negative control DNA was assayed using 5USBACT and 3USBACT as primers, CpG island 1 was assayed using oSK92 (5′-[…]-3′) (SEQ ID NO:23) and oSK93 (5′-[…]-3′) (SEQ ID NO:24) as primers, and CpG island 2 was assayed using oSK89 (5′-[…]-3′) (SEQ ID NO:25) and oSK90 (5′-[…]-3′) (SEQ ID NO:26) as primers. SDS 2.3 software (Applied Biosystems) was used to analyze precipitated DNA relative to input and to confirm the specificity of each PCR reaction by melting curve analysis.

Row | Compound | HIV-1 transcription in the presence of cycloheximide (HIV-1 transcription) | Reactivation of latent HIV-1, MFI, fold greater than PBS control (latent HIV-1 [1]; J-Lat cell line 6.3) | Reactivation of latent HIV-1, MFI, fold greater than PBS control (latent HIV-1 [1]; J-Lat cell line 8.4) | Reactivation of latent HIV-1, MFI, fold greater than PBS control (latent HIV-1 [1]; J-Lat cell line 9.2) | Reactivation of latent HIV-1, MFI, fold greater than PBS control (latent HIV-1 [1]; J-Lat cell line 15.4) | Effect on HIV-1 gene expression (mean fluorescence intensity or proportion of GFP-positive cells) (latent HIV-1 [1]; J-Lat lines 6.3, 8.4, 9.2 and 15.4) | Proportion of cells with active virus, fold greater (latent HIV-1 [2]) | Decrease in methylation (HIV-1 CpG islands) | HDAC2 recruitment to CpG island 2 (HIV-1 CpG island 2) | MBD2 recruitment to CpG island 2 (HIV-1 CpG island 2) | Sp1 recruitment to CpG island 2 (HIV-1 CpG island 2) | Reactivation of latent virus (latent HIV-1 [1]; J-Lat A2 (HIV-derived vector encoding only viral promoter and Tat)) | GFP expression after treatment of J-Lat cells with TNF-α (latent HIV-1 [1]; 40 ng/ml cycloheximide)
1 | Nc1ncn([C@H]2C[C@H](O)[C@@H](CO)O2)c(=O)n1 [Aza-CdR, 5-aza-2′ deoxycytidine] | still induced HIV-1 transcription | 1.8 fold | 1.6 fold | 1.1 fold | 1 fold | little effect | two-fold greater proportion of cells with active virus | ≤ 50% | lost | eliminated | increased Sp1 recruitment | – | –
2 | TNF-a | – | 7.1 fold | 2.5 fold | 2.3 fold | 1.7 fold | – | 1.5 fold | – | – | – | – | reactivated the majority of latent virus | –
3 | C[C@@H]1C[C@@H]([C@H](O)CC2CC(=O)NC(=O)C2)C(=O)[C@@H](C)C1 [Cycloheximide, cycloheximide] | – | – | – | – | – | – | – | – | – | – | – | – | inhibition of GFP expression
